From patent US20230182351A1, “ANTI-MICROBIAL ADDITIVE AND PROPERTIES TO FOAM TO PREVENT MOLD” (LEAR CORPORATION, priority 2021, published 2023)

System: bacterial and fungal growth
Assay: Antimicrobial tests summarized in Table 1 (JIS Z 2801, ASTM G-21)
Assay type: cell-based
Details: in polyurethane foam, amount systematically varied
Procedure: Two polyurethane sample families were prepared. The amount of the liquid antimicrobial agent N-butyl-1,2-benzisothiazolin-3-one was systematically varied. It is pointed out that he JIS Z 2801 method test is an industry standard for testing the ability of a surface to inhibit the growth of microorganisms. ASTM G-21 is a test for fungal resistance test

With `CCCCn1sc2ccccc2c1=O` [N-butyl-1,2-benzisothiazolin-3-one] the “inhibition of bacterial and fungal growth” value was “significant inhibition”.
